Data reported in patent US6458816B1, “Modified prodrug forms of AP/AMP” (Vion Pharmaceuticals, Inc., priority 2000, dated 2002).

Experiments:
[1] = In vivo PK of ortho phosphate bearing 3-AP prodrugs, single intravenous dose, beagle dog; details: for V/F of 3-AP: 3-AP in dog after i.v. prodrug; for Cmax of 3-AP: equimolar doses (equivalent to 3 mg/kg of 3-AP)
Protocol: The pharmacokinetics of 3-AP prodrugs were characterized following administration of a single intravenous dose of 7.2-8.5 mg/kg of 3-AP phosphate prodrugs (equivalent to 3 mg/kg of 3-AP) to a beagle dog. The animal was dosed once with each prodrug weekly. After each dose, a washout period of at least 6 days was maintained before the next dose was administered. Concentrations of 3-AP (Triapine) and prodrug in serum were determined by HPLC and used to calculate various PK parameters. These PK parameters were compared to those of 3-AP from equimolar doses from a separate study. Mean serum drug concentration versus time data were analyzed by both compartmental and non-compartmental models. AUC, total body clearance (Cl), steady-state volume of distribution (Vd,ss), terminal half-life (T1/2), Cmax, Tmax were calculated for both 3-AP and the prodrugs.
Ortho-phosphate prodrug was shown previously to undergo rapid bioconversion to 3-AP when incubated in vitro with alkaline phosphatase. […] At no time have we been able to detect the presence of the intermediary phenol which is the expected cleavage product. […] The 4-chloro (16), 5-methoxy (9) and 5-fluoro (7) analogs were promising in this regard as reflected in their AUCs and half-lives.
Pharmacokinetic parameters of 3-AP itself following i.v. administration of equimolar doses of the prodrugs are presented in Table 3, below.

[2] = system: M109 murine lung carinoma; assay: Activity in the M109 Lung Carcinoma Model; format: in vivo, Balb/c mice; details: for Relative Activity: CTX=Cytoxan
From the text: Twelve (12) 3-AP prodrugs have been evaluated for efficacy and toxicity using the M109 murine lung carinoma model in Balb/c mice. The procedure of the experiment is as follows: eight week aged female Balb/c mice (about 20 grams) were subcutaneously inoculated with 5×10^5/mouse of M109 murine lung carinoma cells at the right flank on day 0. The mice were then randomly grouped and each group consisted of 8-10 mice. 3-AP was used with the Triapine™ formulation while all 3-AP prodrugs were either dissolved or suspended in sterile deionized water. The body weight of mice and the tumor volume were measured twice weekly until the tumor in the control group became necrotic or at least one animal was dead in the control group.

[3] = Pharmacokinetic Study in beagle dogs at 20-80 mg/kg; format: in vivo, beagle dogs (Canis familiaris); details: 30 and 40 mg/kg level
Protocol: Drug levels were determined for the animals at the intervals which are indicated in attached FIGS. 12-15.

[4] = Solubility in aqueous solution; format: physicochemical
[5] = Rising dose pharmacokinetic and toxicokinetic study in dogs with clinical observations; format: in vivo; details: dog, Triapine itself dosed at 3 mg/kg, separate study
Protocol: Initially, both prodrugs were studied at a single dose of 7.5-7.7 mg/kg (equivalent to 3 mg/kg of Triapine).
PK parameters of Triapine and the two prodrugs are presented in Tables 4 and 5 and are compared to those obtained, in a separate study, from administration of 3 mg/kg of Triapine (equivalent to approximately 7.5 mg/kg of prodrugs).
Serum prodrug peak concentrations and AUCs, on the other hand, were not linear with dose, and appeared to be saturated at the doses investigated. Serum concentration-time profiles of prodrugs and Triapine are presented in attached FIGS. 4 and 5. […] The sustained serum Triapine levels were presumably attributable to the high serum levels of prodrugs as well as their low total body clearance.
Treatment-related clinical observations were recorded for both dogs. […] These observations were not present on day 2. The only adverse clinical sign on day 2 was the absence of stool.
Treatment-related clinical observations were recorded for the female treated at 80 mg/kg. […] In addition, the dog was pale (pallor), diarrhea was noted, and had yellow mucous in the stool. All observations were noted on day 1 and the dog was recovered on day 2.

Human serum stability = format: in vitro ADME; details: incubation in human serum
Protocol: Bioconversion of prodrugs to 3-AP catalyzed by alkaline phosphatase. The bioactivation of dimethyl para-prodrug and a subset of the ortho phosphate prodrugs was studied using 4.65×10^−5 unit of phosphatase enzyme solution (Type VII-SA, from Bovine Intestinal Mucose, Sigma). Upon incubation with phosphatase, all the prodrugs were converted cleanly to the parent drug 3-AP. Under these experimental conditions, there was no significant increase in the half-life (T1/2) of bioactivation of ortho phosphate prodrugs compared to that of unsubstituted ortho prodrug (Table 1, below). Human serum stability studies were conducted by incubating the prodrugs at 37° C. in human serum.

solid tumors = details: phase 1, patients with solid tumors; cited from earlier work
M109 lung carinoma cells = assay: Efficacy of 3-AP prodrugs on M109 Lung Carcinoma in Balb/c Mice; format: in vivo; details: M109-bearing Balb/c mice
From the text: Drug treatment was started on day 5 according to the above schedule. […] The drinking water was autoclaved before use.

[6] = 3-AP in dog serum after i.v. prodrug, equimolar doses
[7] = 3-AP in dog serum after i.v. prodrug
[8] = prodrug in dog serum, single i.v. dose 7.2-8.5 mg/kg
[9] = prodrug in dog serum, single i.v. dose 7.2-8.5 mg/kg (equivalent to 3 mg/kg of 3-AP)
[10] = prodrug in dog, single i.v. dose 7.2-8.5 mg/kg
[11] = 60QD mpk ip, day 3-7, 10-14, 17-21
[12] = 5.5 (bid) mpk ip, day 3-7, 10-14
[13] = 100QD mpk ip, day 3-7, 10-14, 17-21

| Compound | V/F of 3-AP ([1]; equimolar doses) [L/kg] | AUC of 3-AP [1, 6] [µg·min/L] | T1/2 of 3-AP [1, 6] [h] | Cmax of 3-AP [1, 7] [µg/mL] | AUC of prodrug [1, 8] [µg·min/L] | T1/2 of prodrug [1, 8] [h] | Cmax of prodrug [1, 9] [µg/mL] | Cl of prodrug [1, 10] [mL/min/kg] | Vss of prodrug [1, 10] [L/kg] | BW Loss (%) [2, 11] [%] | Inhibition (%) [2, 11] [%] | Relative Activity [2, 11] | further results |
| --- | --- | --- | --- | --- | --- | --- | --- | --- | --- | --- | --- | --- | --- |
| NC(=S)N/N=C/c1ncccc1NC(=O)OCc1cc(Cl)cc(Cl)c1OP(=O)(O)O [3,5-Di-Cl-(12)] | 3.99 | 163 | 0.9 | 2.1 | 6939 | 0.567 | 140 | 1.2 | 0.08 | 9.0 | 58 | <CTX |  |
| NC(=S)N/N=C/c1ncccc1N [3-AP (1A)] |  |  |  |  |  |  |  |  |  |  |  |  | half life of 3-AP itself in the dog ([1]; 3-AP itself dosed, dog serum): ~1.5 h; toxicity to the animals [3]: toxic; solubility in aqueous solution [4]: less than 0.1 mg/ml; Cmax ([5]; Table 5): 2.3 µg/mL; AUC of Triapine [5]: 124 mg·min/L; Cmax of Triapine [5]: 2.3 µg/mL; V/F of Triapine [5]: 3.57 L/kg; BW Loss (%) [2, 12]: 8.09%; Inhibition (%) [2, 12]: 60%; Relative Activity [2, 12]: <CTX |
| Cc1cccc(COC(=O)Nc2cccnc2/C=N/NC(N)=S)c1OP(=O)(O)O [3-CH3-(15)] | 5.18 | 998 | 7.8 | 1.5 | 66756 | 5.3 | 147 | 0.11 | 0.08 |  |  |  | Tmax of 3-AP [1, 6]: 7.8 min; BW Loss (%) ([2]; 60QD mpk ip, day 3-7, 10-14): 7.9%; Inhibition (%) ([2]; 60QD mpk ip, day 3-7, 10-14): 64%; Relative Activity ([2]; 60QD mpk ip, day 3-7, 10-14): <CTX |
| NC(=S)N/N=C/c1ncccc1NC(=O)OCc1cc(Cl)c(Cl)cc1OP(=O)(O)O [4,5-Di-Cl-(13)] | 3.14 | 392 | 1.7 | 2.7 | 21499 |  | 220 |  |  | 10.0 | 57 | <CTX |  |
| COc1ccc(COC(=O)Nc2cccnc2/C=N/NC(N)=S)c(OP(=O)(O)O)c1 [4-CH3O (17)] |  |  |  |  |  |  |  |  |  |  |  |  | Half-life, Human Serum 37° C. (Human serum stability): 13.3 h |
| NC(=S)N/N=C/c1ncccc1NC(=O)OCc1c(OP(=O)(O)O)ccc(Cl)c1Cl [5,6-Di-Cl-(14)] | 2.32 |  | 1.6 | 3.6 | 34211 |  | 202 |  |  | 7.0 | 59 | <CTX |  |
| NC(=S)N/N=C/c1ncccc1NC(=O)OCc1cc(C(F)(F)F)ccc1OP(=O)(O)O [5-CF3-(11)] | 2.74 | 280 | 1.1 | 3.0 | 9579 | 0.717 | 156 | 0.86 | 0.08 |  |  |  | BW Loss (%) [2, 13]: 9.1%; Inhibition (%) [2, 13]: 77%; Relative Activity [2, 13]: <CTX |
| NC(=S)N/N=C/c1ccc(O)cn1 [5-HP] |  |  |  |  |  |  |  |  |  |  |  |  | activity in patients (solid tumors): inactive |
| NC(=S)N/N=C/c1ncccc1NC(=O)OCc1cc([N+](=O)[O-])ccc1OP(=O)(O)O [5-NO2-(8)] | 4.27 | 84 | 0.5 | 1.9 | 3396 | 0.317 | 126 | 2.33 | 0.12 | 9.7 | 33 | <<CTX |  |
| NC(=S)N/N=C/c1ncccc1NC(=O)OCc1ccccc1OP(=O)(O)O [Ortho- (3), reference compound] |  | 698 |  |  | 63309 |  |  |  |  |  |  |  | Cmax ([1]; beagle, iv, prodrug in dog serum, single i.v. dose 7.2-8.5 mg/kg (equivalent to 3 mg/kg of 3-AP)): 125 µg/mL; half-life ([1]; beagle, iv, prodrug in dog serum, single i.v. dose 7.2-8.5 mg/kg, read-out: T1/2 of prodrug (converted)): 5.9 h; clearance ([1]; beagle, serum, iv, prodrug in dog, single i.v. dose 7.2-8.5 mg/kg, read-out: Cl of prodrug): 0.11 mL/min/kg; Vd ([1]; beagle, serum, iv, prodrug in dog, single i.v. dose 7.2-8.5 mg/kg, read-out: Vss of prodrug): 0.14 L/kg; reason treatment was stopped before the end of the experiment (M109 lung carinoma cells): severe toxic reactions or mortality of the mice; toxicity to the animals [3]: toxic; BW Loss (%) ([2]; 48QD mpk ip, day 5-9, 12-16): 12.6%; Inhibition (%) ([2]; 48QD mpk ip, day 5-9, 12-16): 70%; Relative Activity ([2]; 48QD mpk ip, day 5-9, 12-16): <CTX; activity versus cytoxan ([2]; M-109 solid tumor bearing mice): comparable activity to that of cytoxan; efficacy and toxicity versus parent 3-AP ([2]; M-109 solid tumor bearing mice): better efficacy with reduced toxicity than the parent 3-AP; efficacy on M109 lung carcinoma compared with the 3-AP parent drug at the MTD ([2]; mice): better efficacy |
| N/C(S)=N/N=C/c1ncccc1NC(=O)OCc1ccc(OP(=O)(O)O)cc1 [Para- (2), reference compound] |  | 74.5 |  |  |  |  |  |  |  |  |  |  |  |
